In one test the test system is A549. Put plainly: Cytotoxicity against human A549 cells. Type of test: functional, cell-based.
In the next test the test system is HT-29. Put plainly: Cytotoxicity against human HT-29 cells. In kind it is functional, cell-based.
Test [1] can be described thus: Cytotoxicity against human Mel20 cells. Type of test: functional, cell-based.
The test system of the next test is P388. The test can be described thus: Cytotoxicity against mouse P388 cells. In kind it is functional, cell-based.
In test [2] the test system is Plasmodium falciparum. The test can be described thus: Antimalarial activity against Plasmodium falciparum D6. In kind it is functional, organism-based.
The subject of test [3] is Plasmodium falciparum. The test can be described thus: Antimalarial activity against Plasmodium falciparum W2. In kind it is functional, organism-based.

In brackets after ≈: the same amount, converted by molar mass.

Usually IC50 stands for the point on the concentration scale where inhibition reaches its midpoint. The low end stands for higher potency, the high end for lower potency. Turning to `CC(C)=C[C@H]1C[C@H](C)[C@]2(CC[C@]3(C)C[C@H]4[C@H](C(=O)C[C@@]4(C)O)/C(C=O)=C\C[C@H]32)O1` [OPHIOBOLIN A], the IC50 in the test on A549 was 0.05 mg/L (≈ 0.125 µM); in the test with HT-29, 0.05 mg/L (≈ 0.125 µM); in test [1] it was 0.05 mg/L (≈ 0.125 µM); in the test on P388 it was 0.025 mg/L (≈ 0.0624 µM); in the test on Plasmodium falciparum [2] it was below 0.529 mg/L; in the test on Plasmodium falciparum [3] it was 0.58 mg/L (≈ 1.45 µM).

These data come from ChEMBL document CHEMBL1144056, “Characterization of 6-epi-3-anhydroophiobolin B from Cochliobolus heterostrophus” (J Nat Prod, 1999).
